In patent publication US8236779B2, “Antiviral nucleosides” (Roche Palo Alto LLC, priority 2010, dated 2012):

How the values were obtained:
[1] = target: T1, HCV polymerase (NS5B570n-Con1) (Hepatitis C virus genotype 1b, UniProt Q9WMX2); assay: HCV NS5B RNA polymerase activity; assay type: biochemical, HCV Con1 strain
T1 construct: a 21 amino acid C-terminal deletion of full-length HCV polymerase derived from HCV Con1 strain; made in house; host or cells: E. coli BL21(DE3) pLysS, plasmid pET17b
Protocol: The enzymatic activity of HCV polymerase (NS5B570n-Con1) was measured as the incorporation of radiolabeled nucleotide monophosphates into acid insoluble RNA products. Unincorporated radiolabeled substrate was removed by filtration and scintillant was added to the washed and dried filter plate containing radiolabeled RNA product. The amount of RNA product generated by NS5B570n-Con1 at the end of the reaction was directly proportional to the amount of light emitted by the scintillant.
The HCV polymerase used in the enzymatic activity assay is a 21 amino acid C-terminal deletion of full-length HCV polymerase derived from HCV Con1 strain, genotype 1b (GenBank accession number AJ242654) (NS5B570n-Con1). The NS5B570n-Cont was sub-cloned downstream to the T7 promoter of the plasmid expression construct pET17b and transformed into E. coli strain BL21(DE3) pLysS for protein expression. A single colony was used to start an innoculum for a 10 L culture in LB media supplemented with 100 μg/mL ampicillin at 37° C. […]
The amount of light emitted from the scintillant was converted to counts per minute (CPM) on a Topcount® plate reader (Perkin-Elmer, Energy Range: Low, Efficiency Mode: Normal, Count Time: 1 min, Background Subtract: none, Cross talk reduction: Off).
Data was analyzed in Excel® (Microsoft®) and ActivityBase® (Idbs®). […] All data was expressed as a percentage of the positive control. […]

[2] = test system: human hepatoma Huh7 cells; assay: Phosphorylation in Huh7 replicon cells; assay type: in vitro ADME
Text: (FIG. 2) Since the cell specific phosphorylation takes place in the target tissue for HCV replication, there is the potential that 4′-AU will be selectively phosphorylated in the target tissue vis-à-vis other tissues thereby minimizing off target toxicity.

[3] = test system: HCV replicon (human hepatoma Huh7 cells); details: cited from earlier work
[4] = test system: primary human hepatocytes; assay: Uptake and phosphorylation in primary human hepatocytes; assay type: in vitro ADME
Protocol: The analysis of uptake and phosphorylation of the nucleoside analog 4AU in primary human hepatocytes was performed as previously published (Ma, H. et al. J. Biol. Chem. 2007, 282:29812-29820). Fresh human hepatocytes were plated and incubated with ^3H-labeled 4AU for different time spans. At the time of cell harvest the cell culture medium was aspirated, and the cells were washed once with cold phosphate-buffered saline. The cells were scraped into 1 mL of pre-chilled 60% (v/v) methanol containing 10 mM EDTA and extracted in methanol for 24 h at −20° C. The extracted samples were then centrifuged at 10,000×g for 15 min to remove cell debris. The supernatant was transferred to new tubes and evaporated in a speed vacuum at room temperature. The dried pellets of cell extracts were dissolved in H2O. Before HPLC analysis, cell extract samples were spiked with unlabeled reference standards 4AU and 4AU-mono-, di- and triphosphate derivatives.
The phosphorylation derivatives of 4AU were separated by ion exchange HPLC with a Whatman Partisil 10 SAX (4.6×250 mm) column coupled to a radiometric detector (β-RAM, IN/US Systems, Inc.). The mobile phase gradient changed linearly from 99% buffer A (H2O) and 1% buffer B (0.5 M KH2PO4+0.8 M KCl) to 100% buffer B between 4 and 16 minutes. 100% buffer B ran from 16 minutes to 26 minutes and changed back to 100% A in 1 minute. Buffer A ran until 32 minutes. […]

[5] = test system: HCV; details: cited from earlier work
[6] = test system: HCV; details: monotherapy; cited from earlier work

## CC(=O)OC(O)[C@@]1(N=[N+]=[N-])O[C@@H](n2ccc(=O)[nH]c2=O)[C@@](O)(OC(C)=O)[C@@]1(O)OC(C)=O (some centres unmarked)
other
  melting point: 158 °C

## [N-]=[N+]=N[C@]1(COP(=O)(O)OP(=O)(O)OP(=O)(O)O)O[C@@H](n2ccc(=O)[nH]c2=O)[C@H](O)[C@@H]1O [4′-AU triphosphate, 4-azidouridine triphosphate]
[1]
  IC50: 0.46 ± 0.088 µM

## [N-]=[N+]=N[C@]1(CO)O[C@@H](n2ccc(=O)[nH]c2=O)[C@H](O)[C@@H]1O [4′-AU, 4′-azido-uridine]
[2]
  phosphorylation in Huh7 cells used in the replicon assay: lack of phosphorylation
[3]
  activity in the replicon assay: inactive
[4]; 4′-AU vs 4′-AC, human hepatocytes
  efficiency of phosphorylation relative to 4′-AC: approximately 10 fold
[4]; primary human hepatocytes
  phosphorylation in primary human hepatocytes: phosphorylation does occur efficiently

## [N-]=[N+]=N[C@]1(COP(=O)(O)OP(=O)(O)OP(=O)(O)O)O[C@@H](n2ccc(N)nc2=O)[C@H](O)[C@@H]1O [4′-AC-triphosphate, 4′-azido-cytidine triphosphate]
[1]
  IC50: 29 ± 0.13 µM

## [N-]=[N+]=N[C@]1(CO)O[C@@H](n2ccc(N)nc2=O)[C@H](O)[C@@H]1O [4′-AC, 4′-azido-cytidine]
[5]
  inhibition of viral replication: potent inhibitor of viral replication

## NC(=O)c1ncn([C@@H]2O[C@H](CO)[C@@H](O)[C@H]2O)n1 [ribavirin, 1-((2R,3R,4S,5R)-3,4-Dihydroxy-5-hydroxymethyl-tetrahydro-furan-2-yl)-1H-[1,2,4]triazole-3-carboxylic acid amide]
[6]
  effect on serum levels of HCV-RNA: does not lower serum levels of HCV-RNA
  patients with serum amino transferase levels reduced to normal: 40%

## CCC(=O)O[C@H]1[C@H](n2ccc(=O)[nH]c2=O)O[C@@](CO)(N=[N+]=[N-])[C@H]1OC(=O)CC [I-1, Propionic acid (2R,3R,4S,5R)-5-azido-2-(2,4-dioxo-3,4-dihydro-2H-pyrimidin-1-yl)-5-hydroxymethyl-4-propionyloxy-tetrahydro-furan-3-yl ester]
other
  melting point: 118 to 120 °C
